Test results reported in ChEMBL document CHEMBL5036349, “Development of potent dual PDK1/AurA kinase inhibitors for cancer therapy: Lead-optimization, structural insights, and ADME-Tox profile” (Eur J Med Chem, 2021).
Activity calls are given as the source filed them. The rule behind the calls is not given here.

How the values were obtained:
[1] = Cytotoxicity against human TC71 cells at 30 uM assessed as cell proliferation rate measured after 72 hrs by MTT assay relative to control; assay type: functional; settings: TC-71
[2] = molecular target: 3-phosphoinositide-dependent protein kinase 1 (Homo sapiens) (UniProt O15530); test: Modulation in PDK-1 phosphorylation in human SK-N-MC cell at 1 uM measured after 30 min by Western blot analysis
[3] = AUC in CD-1 mouse at 10 mg/kg iv measured by UPLC-MS/MS method; assay type: ADME, organism-based; design: dose 10 mg/kg; settings: in vivo
[4] = Drug uptake in human […] cell at 1.5 uM measured with in 5 min by UPLC-MS/MS analysis; assay type: ADME, tissue-based
[5] = tested on: SK-N-MC; test: Inhibition of human Akt in human SK-N-MC cell assessed as inhibition of Akt phosphorylation at 1 uM measured after 30 min by Western blot analysis; assay type: tissue-based
[6] = tested on: HCT-116; test: Cytotoxicity against human HCT-116 cells at 30 uM assessed as cell proliferation rate measured after 72 hrs by MTT assay relative to control; assay type: functional
[7] = molecular target: Ribosomal protein S6 kinase alpha-3 (Homo sapiens) (UniProt P51812); test: Inhibition of human RSK2 in human SK-N-MC cell assessed as inhibition of RSK2 phosphorylation at 1 uM measured after 30 min by Western blot analysis; assay type: tissue-based
Sequence of Ribosomal protein S6 kinase alpha-3 (Homo sapiens) (P51812 whole entry): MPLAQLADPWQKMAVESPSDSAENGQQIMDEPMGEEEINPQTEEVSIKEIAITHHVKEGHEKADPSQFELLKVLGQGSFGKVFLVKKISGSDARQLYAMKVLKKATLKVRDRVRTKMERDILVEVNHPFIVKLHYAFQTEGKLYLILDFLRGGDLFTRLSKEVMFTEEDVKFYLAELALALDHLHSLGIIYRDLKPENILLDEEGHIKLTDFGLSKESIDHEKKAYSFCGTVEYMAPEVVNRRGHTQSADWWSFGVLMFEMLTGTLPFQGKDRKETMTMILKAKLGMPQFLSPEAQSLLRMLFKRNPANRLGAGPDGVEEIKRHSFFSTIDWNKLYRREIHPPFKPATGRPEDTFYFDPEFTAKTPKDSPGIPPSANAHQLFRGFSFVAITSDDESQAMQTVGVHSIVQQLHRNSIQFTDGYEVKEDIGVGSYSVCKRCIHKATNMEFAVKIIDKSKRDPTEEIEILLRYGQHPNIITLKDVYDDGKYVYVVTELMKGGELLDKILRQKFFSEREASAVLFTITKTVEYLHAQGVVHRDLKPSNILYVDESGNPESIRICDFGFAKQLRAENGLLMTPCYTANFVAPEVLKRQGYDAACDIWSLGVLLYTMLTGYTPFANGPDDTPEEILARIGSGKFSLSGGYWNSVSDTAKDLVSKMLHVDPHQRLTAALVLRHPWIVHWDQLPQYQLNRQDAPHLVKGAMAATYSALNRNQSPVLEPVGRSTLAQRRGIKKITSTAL

Sequence of 3-phosphoinositide-dependent protein kinase 1 (Homo sapiens) (O15530 whole entry, looked up): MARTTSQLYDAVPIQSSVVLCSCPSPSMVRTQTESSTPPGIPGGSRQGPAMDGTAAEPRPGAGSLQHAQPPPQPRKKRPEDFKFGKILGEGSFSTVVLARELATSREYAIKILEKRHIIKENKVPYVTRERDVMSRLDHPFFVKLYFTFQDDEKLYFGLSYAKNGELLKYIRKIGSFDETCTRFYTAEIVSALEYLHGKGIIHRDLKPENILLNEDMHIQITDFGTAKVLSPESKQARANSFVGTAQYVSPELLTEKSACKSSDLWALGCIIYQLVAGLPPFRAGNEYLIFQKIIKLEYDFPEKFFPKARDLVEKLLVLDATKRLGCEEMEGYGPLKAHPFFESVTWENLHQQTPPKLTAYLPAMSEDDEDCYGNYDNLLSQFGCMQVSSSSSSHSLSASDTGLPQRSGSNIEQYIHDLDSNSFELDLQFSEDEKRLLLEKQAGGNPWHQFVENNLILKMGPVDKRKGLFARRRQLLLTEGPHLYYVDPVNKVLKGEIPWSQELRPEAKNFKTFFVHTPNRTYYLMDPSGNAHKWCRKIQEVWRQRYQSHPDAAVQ

- Activity [2]: inactive
- AUC [3]: 4220 ng·h/mL
- Drug uptake [4]: 100 ng/mL
- inhibition [7]: Active
SMILES: O=C1Nc2ccc(NC(=O)[C@H](NC(=O)c3cccn(Cc4ccc(F)c(F)c4)c3=O)c3ccccc3)cc2/C1=C/c1cnc[nH]1 (stereo in doubt)
- Emax at 30 µM [1]: 60%
- inhibition [5]: Active
- Emax at 30 µM [6]: 60%
